According to patent US9695193B2, “Inhibitors of Plasmodium falciparum equilibrative nucleoside transporter type I as anti-parasitic compounds” (The Trustees of Columbia University in the City of New York, priority 2013, dated 2017):

Target: T1, PfENT1 (Plasmodium falciparum, UniProt Q8IDM6)
T1 construct: expressed in transfected cells; host or cells: fui1Δ yeast (Saccharomyces cerevisiae), co-expressing GFP
Format: cell-based
Settings: primary HTS, compounds at 10 μM, 125 μM 5-FUrd
Description: A yeast-based high throughput screening (HTS) assay was used to identify compounds that inhibit PfENT1. The compounds described in this application were identified by screening four commercially available, chemical compound libraries obtained from Dr. Donald Landry's laboratory (Department of Medicine, Columbia University). These libraries contain approximately 80,000 unique chemical entities.
In the primary screen the compounds were tested at a concentration of 10 μM. Hits were identified by the growth of fui1Δ yeast expressing PfENT1 and Green Fluorescent Protein (GFP) in the presence of the cytotoxic nucleoside 5-fluorouridine (5-FUrd). 5-FUrd is transported by PfENT1. PfENT1 expressing fui1Δ yeast will only grow in the presence of 125 μM 5-FUrd if a PfENT1 inhibitor blocks the uptake of 5-FUrd into the yeast. Significant yeast growth in the HTS in 384 well plates was determined by two criteria: 1) turbidity as determined by the optical density at 620 nm (OD620) and 2) GFP fluorescence intensity. […] Hits had to be positive by both criteria.

T1 sequence (Q8IDM6 whole entry): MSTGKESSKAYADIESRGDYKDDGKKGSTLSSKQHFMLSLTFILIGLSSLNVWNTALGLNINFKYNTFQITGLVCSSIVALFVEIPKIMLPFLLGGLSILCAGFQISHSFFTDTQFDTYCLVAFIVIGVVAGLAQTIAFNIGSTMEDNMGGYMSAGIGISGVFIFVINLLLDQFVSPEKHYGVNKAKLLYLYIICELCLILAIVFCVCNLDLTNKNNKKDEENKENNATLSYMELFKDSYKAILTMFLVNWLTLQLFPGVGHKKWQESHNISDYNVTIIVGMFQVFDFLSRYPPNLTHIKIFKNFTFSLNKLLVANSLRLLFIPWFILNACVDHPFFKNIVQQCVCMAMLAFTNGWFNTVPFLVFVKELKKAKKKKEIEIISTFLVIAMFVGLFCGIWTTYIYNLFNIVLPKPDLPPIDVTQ

| SMILES | Avg Normalized % maximal activity [%] |
| --- | --- |
| Cc1ccc(C(=O)Nc2ccc(C(=O)N3CCCCC3)cc2)cc1 [compound 86, 4-methyl-N-[4-(1-piperidinylcarbonyl)phenyl]benzamide] | 5.63 |
| COc1ccc(Cl)cc1NC(=O)c1ccc2nccnc2c1 [compound 87, N-(5-chloro-2-methoxyphenyl)-6-quinoxaline-carboxamide] | 5.62 |
| COc1ccc(NC(=O)C(C)Oc2ccc3oc(=O)cc(C)c3c2)cc1 (centres unmarked) [compound 88, N-(4-methoxyphenyl)-2-[(4-methyl-2-oxo-2H-chromen-6-yl)oxy]propanamide] | 5.42 |
| COc1cccc(C(=O)Nc2ccc(-c3nc4ncccc4o3)cc2C)c1 [compound 89, 3-methoxy-N-(2-methyl-4-[1,3]oxazolo [4,5-b]pyridin-2-ylphenyl)benzamide] | 5.35 |
| CSc1ccccc1C(=O)Nc1nc(=O)c2ccccc2[nH]1 [compound 90, 2-(methylthio)-N-(4-oxo-1,4-dihydro-2-quinazolinyl)benzamide] | 5.22 |
| CCOC(=O)c1ccc(NC(=O)c2nc(SC)ncc2Cl)cc1 [compound 91, ethyl 4-({[5-chloro-2-(methylthio)-4-pyrimidinyl]carbonyl}amino)benzoate] | 5.19 |
| COc1ccc(-c2cnc3ccccc3n2)cc1NC(=O)c1cccs1 [compound 92, N-(2-methoxy-5-(2-quinoxalinyl)phenyl]-2-thiophenecarboxamide] | 5.16 |
| Cc1cc(C)cc(C(=O)Nc2nnc(C)s2)c1 [compound 94, 3,5-dimethyl-N-(5-methyl-1,3,4-thiadiazol-2-yl)benzamide] | 5.01 |
| C[C@H]1CC[C@]2(NC1)O[C@H]1C[C@H]3[C@@H]4CC[C@H]5C[C@@H](O[C@@H]6O[C@H](CO)[C@H](O[C@@H]7O[C@H](CO)[C@@H](O)[C@H](O[C@@H]8OC[C@@H](O)[C@H](O)[C@H]8O)[C@H]7O[C@@H]7O[C@H](CO)[C@@H](O)[C@H](O)[C@H]7O)[C@H](O)[C@H]6O)CC[C@]5(C)[C@H]4CC[C@]3(C)[C@H]1[C@@H]2C [compound 95] | 5.00 |
| O=C(Nc1cccc(-c2nc3ncccc3o2)c1)c1ccccc1F [compound 96, 2-fluoro-N-(3-[1,3]oxazolo [4,5-b]pyridin-2-ylphenyl)benzamide] | 4.92 |
| CNC(=O)c1nc(-c2ccc(Cl)cc2)no1 [compound 97, 3-(4-chlorophenyl)-N-methyl-1,2,4-oxadiazole-5-carboxamide] | 4.86 |
| COC(=O)c1ccccc1NC(=O)c1ccc(NC(=O)C2CCCO2)cc1 (centres unmarked) [compound 99, methyl 2-({4-[(tetrahydro-2-furanylcarbonyl)amino]benzoyl}amino)benzoate] | 4.83 |
| O=C(Nc1cccnc1)c1cc2cc(C3CC3)cc(C(F)(F)F)n2n1 [compound 100] | 4.83 |
| COc1cc(NC(=O)c2cccc(Br)c2)nc(OC)n1 [compound 101, 3-bromo-N-(2,6-dimethoxy-4-pyrimidinyl)benzamide] | 4.78 |
| O=C1OC(CO)[C@@H](O)C(O)C1O (some centres unmarked) [compound 102] | 4.76 |
| O=C(Nc1cc(-c2nc3ccccc3[nH]2)ccc1Cl)c1ccco1 [compound 103, N-[5-(1H-benzimidazol-2-yl)-2-chlorophenyl]-2-furamide] | 4.74 |
| Cc1cccc(N2C(=O)CC(NC3CCCC3)C2=O)c1 (centres unmarked) [compound 104, 3-(cyclopentylamino)-1-(3-methylphenyl)-2,5-pyrrolidinedione] | 4.72 |
| Cc1ccccc1C(=O)Nc1ccc(-c2nc3ncccc3o2)cc1 [compound 105, 2-methyl-N-(4-[1,3]oxazolo[4,5-b]pyridin-2-ylphenyl)benzamide] | 4.70 |
| COc1ccc(NC(=O)C2Cc3ccccc3C(=O)O2)cc1 (centres unmarked) [compound 106, N-(4-methoxyphenyl)-1-oxo-3,4-dihydro-1H-isochromene-3-carboxamide] | 4.69 |
| COc1ccc(N(CC(=O)Nc2ccc(Cl)cc2)S(C)(=O)=O)c(OC)c1 [compound 107, N~1~-(4-chlorophenyl)-N~2~-(2,4-dimethoxyphenyl)-N~2~-(methylsulfonyl)glycinamide] | 4.67 |
| CCc1nnc(NC(=O)c2sc3nc(C)cc(COC)c3c2N)s1 [compound 108, 3-amino-N-(5-ethyl-1,3,4-thiadiazol-2-yl)-4-(methoxymethyl)-6-methylthieno [2,3-b]pyridine-2-carboxamide] | 4.66 |

| SMILES | Avg Normalized % maximal activity [%] |
| --- | --- |
| CNC[C@H](O)[C@@H](O)[C@H](O)[C@H](O)CO [compound 109] | 4.65 |
| O=C(Nc1ccc(-c2nnc(-c3ccco3)o2)cc1)C1CCCCC1 [compound 110, N-{4-[5-(2-furyl)-1,3,4-oxadiazol-2-yl]phenyl} cyclohexane-carboxamide] | 4.61 |
| COCCNCCOc1ccc(C(C)(C)C)cc1C.O=C(O)C(=O)O [compound 111, [2-(4-tert-butyl-2-methylphenoxy)ethyl](2-methoxyethyl)amine oxalate] | 4.58 |
| COC(=O)c1ccccc1NC(=O)c1cccc(NC(=O)c2cccs2)c1C [compound 112, methyl 2-({2-methyl-3-[(2-thienylcarbonyl)amino]benzoyl}amino)benzoate] | 4.55 |
| CCSc1nnc(NC(=O)c2cccc(OC)c2)s1 [compound 113, N-[5-(ethylthio)-1,3,4-thiadiazol-2-yl]-3-methoxybenzamide] | 4.39 |
| CCC(=O)Nc1cccc(-c2nnc(-c3ccccc3C)o2)c1 [compound 114, N-{3-[5-(2-methylphenyl)-1,3,4-oxadiazol-2-yl]phenyl} propanamide] | 4.37 |
| Cc1ccc(NC(=O)CSc2nccn2C)cc1C [compound 115, N-(3,4-dimethylphenyl)-2-[(1-methyl-1H-imidazol-2-yl)thio]acetamide] | 4.36 |
| O=C(Nc1cccc(NC(=O)c2cccs2)c1)c1cc2ccccc2o1 [compound 116, N-{3-[(2-thienylcarbonyl)amino]phenyl)-1-benzofuran-2-carboxamide] | 4.34 |
| COc1cc(NC(=O)CSc2nccc(C)n2)c(OC)cc1Cl [compound 117, N-(4-chloro-2,5-dimethoxyphenyl)-2-[(4-methyl-2-pyrimidinyl)thio]acetamide] | 4.28 |
| Nc1nc(N)n(-c2ccccc2)n1 [compound 118, 1-phenyl-1H-1,2,4-triazole-3,5-diamine] | 4.28 |
| COCc1cc(C)nc2sc(C(=O)Nc3ccc(C(=O)OC)cc3)c(N)c12 [compound 119, methyl 4-({[3-amino-4-(methoxymethyl)-6-methylthieno[2,3-b]pyridin-2-yl]carbonyl}amino)benzoate] | 4.25 |
| CC(=O)[C@H]1CC[C@H]2[C@@H]3C[C@H](C)C4=CC(=O)CC[C@]4(C)[C@H]3[C@@H](O)C[C@]12C [compound 121] | 4.13 |
| COc1c(C)cccc1C(=O)Nc1cc(-c2nc3ncccc3o2)ccc1C [compound 122, 2-methoxy-3-methyl-N-(2-methyl-5-[1,3]oxazolo[4,5-b]pyridin-2-ylphenyl)benzamide] | 4.13 |
| CC(C)c1nnc(NC(=O)c2cccc(I)c2)s1 [compound 123, 3-iodo-N-(5-isopropyl-1,3,4-thiadiazol-2-yl)benzamide] | 4.10 |
| COc1ccc(OC)c(NC(=O)N2CCN(c3cc(Cl)ccc3C)CC2)c1 [compound 124, 4-(5-chloro-2-methylphenyl)-N-(2,5-dimethoxyphenyl)-1-piperazine-carboxamide] | 3.95 |
| CCSc1nnc(NC(=O)c2cc(Br)ccc2Cl)s1 [compound 125, 5-bromo-2-chloro-N-[5-(ethylthio)-1,3,4-thiadiazol-2-yl]benzamide] | 3.89 |
| COc1ccc(NC(=O)C2(c3ccccc3)CCCC2)cc1 [compound 126, N-(4-methoxyphenyl)-1-phenylcyclopentane-carboxamide] | 3.87 |
| COc1c(C)c2c(c(O)c1C/C=C(\C)CCC(=O)OCCN1CCOCC1)C(=O)OC2 [compound 127] | 3.85 |
| COc1ccc(/C=C/c2nc(C#N)c(N3CCCCC3)o2)cc1OC [compound 128, 2-[2-(3,4-dimethoxyphenyl)vinyl]-5-(1-piperidinyl)-1,3-oxazole-4-carbonitrile] | 3.74 |
| CC(C)[C@@H]1CC[C@@H](C)CC1=O [compound 129] | 3.73 |
